Experimental data taken from paper PMC6934184, “Selective DNA-PKcs inhibition extends the therapeutic index of localized radiotherapy and chemotherapy” (The Journal of Clinical Investigation, 2019).

Molecular target: T1, MAP3K10 (MLK2) (Homo sapiens, UniProt Q02779)
T1 construct: purchased Thermo Fisher Scientific (Life Technologies) SelectScreen
Assay: SelectScreen LanthaScreen
Assay type: binding
Conditions: read-out: % displacement
Procedure, shortened: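 Percent values come from Thermo SelectScreen profiling of NU5455, combining activity and binding assays. CSF1R was run in Z'LYTE format at Km app ATP, and CAMK1 in Adapta format with ATP listed at 10.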

T1 sequence (Q02779 whole entry): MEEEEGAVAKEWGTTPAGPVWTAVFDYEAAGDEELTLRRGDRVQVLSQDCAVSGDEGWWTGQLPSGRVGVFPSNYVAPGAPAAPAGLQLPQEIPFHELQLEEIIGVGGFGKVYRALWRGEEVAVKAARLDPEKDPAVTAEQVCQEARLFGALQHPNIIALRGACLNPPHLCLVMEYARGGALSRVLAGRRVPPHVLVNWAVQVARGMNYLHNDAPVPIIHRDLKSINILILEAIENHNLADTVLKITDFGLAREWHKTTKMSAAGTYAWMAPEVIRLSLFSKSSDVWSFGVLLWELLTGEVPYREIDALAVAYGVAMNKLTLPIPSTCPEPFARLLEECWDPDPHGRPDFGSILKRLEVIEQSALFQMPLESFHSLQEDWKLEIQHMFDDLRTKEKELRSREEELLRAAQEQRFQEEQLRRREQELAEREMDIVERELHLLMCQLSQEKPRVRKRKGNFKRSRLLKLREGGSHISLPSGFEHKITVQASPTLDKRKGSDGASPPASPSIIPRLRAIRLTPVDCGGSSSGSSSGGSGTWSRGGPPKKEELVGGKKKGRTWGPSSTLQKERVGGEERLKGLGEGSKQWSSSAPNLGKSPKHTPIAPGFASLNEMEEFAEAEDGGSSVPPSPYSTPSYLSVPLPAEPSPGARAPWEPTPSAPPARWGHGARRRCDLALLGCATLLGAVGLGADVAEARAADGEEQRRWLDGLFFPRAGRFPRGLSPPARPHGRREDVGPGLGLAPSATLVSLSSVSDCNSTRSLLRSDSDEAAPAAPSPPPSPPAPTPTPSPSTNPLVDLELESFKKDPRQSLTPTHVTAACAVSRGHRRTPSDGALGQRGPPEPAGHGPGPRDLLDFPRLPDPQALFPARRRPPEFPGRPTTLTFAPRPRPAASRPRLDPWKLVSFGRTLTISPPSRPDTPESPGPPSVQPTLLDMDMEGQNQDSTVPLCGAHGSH

How did the inhibition at 1 µM turn out when `CN(C(=O)CN1CCOCC1)c1ccc2sc3c(-c4cccc5c(=O)cc(N6CC7CCC(C6)O7)oc45)cccc3c2c1` [NU5455] was run?
The inhibition at 1 µM was 1.5%.
